We go through one compound from patent publication US11000516B2 (priority 2015, dated 2021).

Data set [1] has as its system EDEN1 (clinical DENV1 isolate). The data set is described as follows: Antiviral effect in BHK-21 cells, plaque assay of supernatant 48 h pi. The data set is classed as cell-based. Here is the method:
(§1) Cells were infected with DENV strains for 1 hour at 37° C. and washed once with culture media. […] The supernatants were subjected to standard plaque assay and the EC50 values were determined using the GraphPad Prism software.
(§2) NITD008, an adenosine analog inhibitor of DENV polymerase (Yin et al., 2009) was used as a positive control.

For data set [2], the system named is EDEN2 (clinical DENV2 isolate). The data set is described as above. The data set is classed as cell-based. To be noted: Dengue virus, DENV2, BHK-21. Here is the method: as §1, §2
The subject of data set [3] is S221 (mouse-adapted DENV2 strain). Described as above. The data set is classed as cell-based. Particulars: Dengue virus, DENV2, BHK-21. Here is the method: as §1, §2
The subject of data set [4] is DENV2 strain #013. The data set is described as follows: CELADEN clinical strain in HuH-7 cells, single concentration, virus titer by plaque assay. The data set is classed as cell-based. To be noted: strain #013, celgosivir 3 mM, 48 hours pi. Here is the method:
(§3) EDEN1, EDEN2 and S221 were used as control virus strains. The MOI of each strain was indicated in supplementary FIG. 2. After 48 hours pi, virus titer in the supernatants was determined by standard plaque assay using BHK-21 cells. The percentages of virus titer were calculated based on virus infection control of each strain. Error bars indicate standard deviations from duplicate experiments. (B and C) Mice were inoculated i.v. with DENV2 strains, #031 (2×10^7 pfu), #013 (1×10^7 pfu) or #036 (2×10^7 pfu). […] Average viral copy numbers on day 1-2 were measured using mixed serum of each group. Viral copy number on day 3 was measured individually and the graphs show the average results with standard deviations. A P value less than 0.05 was considered significant (*P<0.05). […] Viral copy number on day 3-6 was measured individually and shown in the graphs as the average results with standard deviations. The VLR from day 3 to day 6 was also shown as the mean value and standard deviations. The number of mice per group is 6.
(§4) Total 16 clinical DENV virus were recovered from serum of CELADEN trial patients with 8 of either DENV1 or DENV2 infection. […] The MOI was varied among strains to obtain similar levels of virus titer (within 10-fold difference). The MOI was 0.01 (EDEN1), 0.1 (#005, #048, #004, #033, #010, #013, #022, #036), 0.2 (#016, #017, #011, EDEN2, S221), 0.5 (#049, #038), 1 (#028, #031) and 2 (#025). After 48 hours post-infection, virus titer in the supernatants was determined by standard plaque assay using BHK-21 cells. Error bars indicate standard deviations from duplicate experiments.
(§5) Since infection levels in HuH-7 cells are different among the strains, the MOI of each strain was varied to obtain similar levels of virus titer in the supernatant (FIG. 8).

Another data set concerns DENV2 strain #031. Described as above. The data set is classed as cell-based. Particulars: strain #031, celgosivir 3 mM, 48 hours pi. Here is the method:
as §3, §4, §5

Data set [5] relates to DENV2 strain #036. The data set is described as above. To be noted: strain #036, celgosivir 3 mM, 48 hours pi. The data set is classed as cell-based. Here is the method:
as §3, §4, §5

The test system of the next data set is EDEN1. In words: Lethal ADE infection model in AG129 mice (4G2 Ab pre-injection). The data set is classed as in vivo. Here is the method:
(§6) AG129 mice were inoculated i.v. with EDEN1 (7×10^7 pfu), EDEN2 (1×10^8 pfu) or S221 (2×10^4 pfu) for non-lethal infection. For the ADE infection (lethal), mice were pre-injected i.p. with 50 μg (for EDEN1 and EDEN2) or 10 μg (for S221) 4G2 Ab one day prior to infection. (A) Mouse survival rate was monitored by day 10 pi. (B) Blood samples were collected on days 1-8 pi and mixed serum from each group were subjected to real-time RT-PCR to obtain the average viral genome copy numbers. (C) Serum levels of TNFα and IL-6 were measured by ELISA assay. The numbers of mice per group are 6 (EDEN1) or 5 (EDEN2 and S221).
(§7) AG129 mice were pre-injected i.p. with 50 μg (for EDEN1 and EDEN2) or 10 μg (for S221) 4G2 Ab followed by next day inoculation i.v. with EDEN1 (7×10^7 pfu), EDEN2 (1×10^8 pfu) or S221 (2×10^4 pfu). […] (A) Mouse survival rate was monitored by day 10 pi. (B) Blood samples were collected on day 1-4 pi and mixed serum from each group were subjected to real-time RT PCR to obtain the average viral genome copy numbers (left panels). […] A P value less than 0.05 was considered significant (*P<0.05). The number of mice per group is 5.
(§8) AG129 mice were pre-injected i.p. with 4G2 Ab followed by next day inoculation i.v. with EDEN1, EDEN2 or S221 as described above. […] (A) Mouse survival rate was monitored by day 10 pi. (B) Blood samples were collected on days 1-4 pi and mixed serum from each group were subjected to real-time RT PCR to obtain the average viral genome copy numbers (left panels). […] A P value less than 0.05 was considered significant (*P<0.05). The number of mice per group is 6.
(§9) AG129 mouse models of clinical DENV strains, EDEN1 and EDEN2, in addition to mouse-adapted S221 strain were developed. To increase infection level in mice, high virus titer of EDEN1 (7×10^7 pfu) and EDEN2 (1×10^8 pfu) were inoculated intravenously (iv) into AG129 mice.

In the next data set the test system is EDEN2. The data set is described as above. The data set is classed as in vivo. Here is the method:
as §6, §7, §8, §9

For data set [6], the system named is DENV2 strain #013. The data set is described as follows: Non-lethal mouse model with CELADEN strain. The data set is classed as in vivo, mice. Here is the method: as §3, §5
Data set [7] has as its system DENV2 strain #036. In words: Non-lethal mouse model with CELADEN strain. The data set is classed as in vivo, mice. Here is the method:
as §3, §5

Another data set deals with DENV2. The data set is described as follows: Survival of DENV2 infected mice in a lethal ADE model of viremia (FIG. 5B). The data set is classed as in vivo. Here is the method: Survival at day 12 was 1/8 (13%) at 10 mg/kg twice daily (BID), 5/8 (63%) at 25 mg/kg BID, 7/7 (100%) at 50 mg/kg BID, and 0/8 (0%) at 100 mg/kg once daily (QD).
For data set [8] the following is noted: over the tolerated dose range; cited from earlier work.

Broadly, the EC50 is the concentration that produces a half-maximal response. Regarding `CCCC(=O)O[C@H]1CN2CC[C@H](O)[C@@H]2[C@@H](O)[C@@H]1O` [celgosivir], the EC50 in data set [1] (BHK-21, BHK-21, EDEN1, MOI 0.01) came out at 66 nM; in data set [1] (BHK-21, BHK-21, EDEN1, MOI 0.3), 105 nM; in data set [2] it was 61 nM; in data set [3], 119 nM. Besides, the “reduction in virus titer in the supernatant of HuH-7 cells” value in the data set on DENV2 strain #013 [4] is recorded as 67%; with DENV2 strain #031 it was 52%; in the data set with DENV2 strain #036 [5], 70%. Further, the “protection from death (survival)” value in the data set with EDEN1 (EDEN1, 10 mg/kg BID from time of infection) is on record as “could not protect mice from death”; with EDEN2 (EDEN2, 10 mg/kg BID from time of infection) it was 100%. Also, the “viremia reduction versus VC on day 3” value in the data set with EDEN1 (EDEN1, lethal ADE model, 10 mg/kg BID from day 0) was 1.8 fold; in the data set with EDEN2 (EDEN2, lethal ADE model, 10 mg/kg BID from day 0), 3.7 fold. Besides, the “lower viremia level than vehicle control on day 3 pi” value came out at 4.3 fold with EDEN1 (EDEN1, lethal ADE model, 50 mg/kg BID from day 0) and 16.5 fold with EDEN2 (EDEN2, lethal ADE model, 50 mg/kg BID from day 0). Besides, the “viremia reduction on day 3 pi” value with DENV2 strain #013 [6] (#013, 50 mg/kg BID from time of infection) is 6.8 fold; with DENV2 strain #036 [7] (#036, 50 mg/kg BID from time of infection) it was 12.5 fold. The “VLR from day 3 to day 6” value in the data set on DENV2 strain #013 [6] (#013, 50 mg/kg BID started during peak viremia (day 3)) is on record as 2.32; in the data set on DENV2 strain #036 [7] (#036, 50 mg/kg BID started during peak viremia (day 3)), 2.14. Moreover, the “Survival at day 12” value in the data set on DENV2 (10 mg/kg twice daily (BID)) came out at 13%; in the data set on DENV2 (25 mg/kg BID), 63%; in the data set on DENV2 (50 mg/kg BID), 100%; in the data set on DENV2 (100 mg/kg once daily (QD)), 0%. For the same compound, in data set [8], the pharmacokinetics dose dependence entry is given as “linear with dose”.
